Test results from ChEMBL document CHEMBL1143306, “3-amido-4-anilinoquinolines as CSF-1R kinase inhibitors 2: Optimization of the PK profile” (Bioorg Med Chem Lett, 2009).
In brackets after ≈: the same amount, converted by molar mass.

Target: T1, Macrophage colony-stimulating factor 1 receptor (Homo sapiens, UniProt P07333)
Experiment: Inhibition of CSF1R
Conditions: not given

T1 sequence (P07333 whole entry): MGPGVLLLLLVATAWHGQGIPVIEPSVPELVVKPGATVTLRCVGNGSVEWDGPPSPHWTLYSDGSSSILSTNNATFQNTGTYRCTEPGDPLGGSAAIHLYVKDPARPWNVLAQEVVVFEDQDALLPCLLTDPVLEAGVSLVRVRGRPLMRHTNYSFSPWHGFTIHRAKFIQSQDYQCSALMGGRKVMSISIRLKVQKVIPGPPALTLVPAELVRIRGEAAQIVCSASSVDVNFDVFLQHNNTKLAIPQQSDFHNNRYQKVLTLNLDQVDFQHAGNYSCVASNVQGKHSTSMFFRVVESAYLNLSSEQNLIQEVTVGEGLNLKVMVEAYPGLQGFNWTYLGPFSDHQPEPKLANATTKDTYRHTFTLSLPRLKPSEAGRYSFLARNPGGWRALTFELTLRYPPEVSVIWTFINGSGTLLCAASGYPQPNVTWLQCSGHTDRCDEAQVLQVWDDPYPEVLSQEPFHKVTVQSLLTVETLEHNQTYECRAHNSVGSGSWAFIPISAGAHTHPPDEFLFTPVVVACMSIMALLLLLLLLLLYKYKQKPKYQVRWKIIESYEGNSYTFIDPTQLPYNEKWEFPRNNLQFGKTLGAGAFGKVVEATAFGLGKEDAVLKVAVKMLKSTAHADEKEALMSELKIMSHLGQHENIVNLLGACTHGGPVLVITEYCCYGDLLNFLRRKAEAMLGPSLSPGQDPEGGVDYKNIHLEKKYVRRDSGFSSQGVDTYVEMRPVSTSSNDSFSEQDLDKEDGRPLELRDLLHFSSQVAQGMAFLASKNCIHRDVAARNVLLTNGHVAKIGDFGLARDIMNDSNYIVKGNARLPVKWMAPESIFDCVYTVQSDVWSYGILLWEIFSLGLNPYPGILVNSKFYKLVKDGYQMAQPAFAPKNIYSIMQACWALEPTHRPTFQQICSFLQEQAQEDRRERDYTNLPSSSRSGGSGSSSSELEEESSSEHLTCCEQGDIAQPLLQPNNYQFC

Row | IC50 [nM] | SMILES
1 | 6 | CCOc1cc2ncc(C(N)=O)c(Nc3ccc(F)cc3F)c2cc1N1CCN(C)CC1
2 | 24 | COc1cc2c(Nc3ccc(Cl)c(Cl)c3)c(C(N)=O)cnc2cc1N1CCN(C)CC1
3 | 8 | CN1CCN(c2ccc3ncc(C(N)=O)c(Nc4cccc(Cl)c4Cl)c3c2)CC1
4 | 59 | CN1CCN(c2ccc3ncc(C(N)=O)c(Nc4ccc(Cl)c(Cl)c4)c3c2)CC1
5 | < 3 | CCOc1cc2ncc(C(N)=O)c(Nc3cccc(Cl)c3Cl)c2cc1N1CCN(C)CC1
6 | 54 | CN1CCN(c2cc3c(Nc4ccc(F)cc4F)c(C(N)=O)cnc3cc2F)CC1
7 | 6 | COc1cc2ncc(C(N)=O)c(Nc3ccc(F)cc3F)c2cc1N1CCN(C)CC1
8 | 3 | CN1CCN(c2cc3c(Nc4cccc(Cl)c4Cl)c(C(N)=O)cnc3cc2F)CC1

Row | SMILES | IC50 [nM]
9 | COc1cc2c(Nc3ccc(F)cc3F)c(C(N)=O)cnc2cc1N1CCN(C)CC1 | 11

Tested on: NIH3T3
Experiment: Antiproliferative activity against mouse 3T3 cells expressing human CSF1R after 72 hrs by Celltiter assay
Assay type: functional
Conditions: not given

Row | SMILES | Activity [µM]
10 | COc1cc2c(Nc3ccc(F)cc3F)c(C(N)=O)cnc2cc1N1CCN(C)CC1 | 0.72
11 | COc1cc2c(Nc3ccc(Cl)c(Cl)c3)c(C(N)=O)cnc2cc1N1CCN(C)CC1 | 0.55
12 | CN1CCN(c2ccc3ncc(C(N)=O)c(Nc4cccc(Cl)c4Cl)c3c2)CC1 | 0.71
13 | CN1CCN(c2ccc3ncc(C(N)=O)c(Nc4ccc(Cl)c(Cl)c4)c3c2)CC1 | 2.7
14 | CN1CCN(c2cc3c(Nc4ccc(F)cc4F)c(C(N)=O)cnc3cc2F)CC1 | 4.2
15 | COc1cc2ncc(C(N)=O)c(Nc3ccc(F)cc3F)c2cc1N1CCN(C)CC1 | 1
16 | CN1CCN(c2cc3c(Nc4cccc(Cl)c4Cl)c(C(N)=O)cnc3cc2F)CC1 | 0.44

Tested on: not listed separately
Experiment: Aqueous solubility of the compound
Assay type: physicochemical
Conditions: buffer

Row | solubility [µM] | SMILES
17 | 290 (≈ 128 µg/mL) | CCOc1cc2ncc(C(N)=O)c(Nc3ccc(F)cc3F)c2cc1N1CCN(C)CC1
18 | 44 (≈ 18.9 µg/mL) | CN1CCN(c2ccc3ncc(C(N)=O)c(Nc4cccc(Cl)c4Cl)c3c2)CC1
19 | 720 (≈ 310 µg/mL) | CN1CCN(c2ccc3ncc(C(N)=O)c(Nc4ccc(Cl)c(Cl)c4)c3c2)CC1
20 | 50 (≈ 23.7 µg/mL) | CCOc1cc2ncc(C(N)=O)c(Nc3cccc(Cl)c3Cl)c2cc1N1CCN(C)CC1
21 | 71 (≈ 29.5 µg/mL) | CN1CCN(c2cc3c(Nc4ccc(F)cc4F)c(C(N)=O)cnc3cc2F)CC1
22 | > 1000 | COc1cc2ncc(C(N)=O)c(Nc3ccc(F)cc3F)c2cc1N1CCN(C)CC1
23 | 8 (≈ 3.59 µg/mL) | CN1CCN(c2cc3c(Nc4cccc(Cl)c4Cl)c(C(N)=O)cnc3cc2F)CC1

Row | SMILES | solubility [µM]
24 | COc1cc2c(Nc3ccc(F)cc3F)c(C(N)=O)cnc2cc1N1CCN(C)CC1 | > 1000

Tested on: not listed separately
Experiment: Plasma protein binding assessed as percentage unbound
Conditions: not given

Row | fraction unbound | SMILES
25 | 0.11 | CCOc1cc2ncc(C(N)=O)c(Nc3ccc(F)cc3F)c2cc1N1CCN(C)CC1
26 | 0.046 | CN1CCN(c2ccc3ncc(C(N)=O)c(Nc4cccc(Cl)c4Cl)c3c2)CC1
27 | 0.058 | CN1CCN(c2ccc3ncc(C(N)=O)c(Nc4ccc(Cl)c(Cl)c4)c3c2)CC1
28 | 0.02 | CCOc1cc2ncc(C(N)=O)c(Nc3cccc(Cl)c3Cl)c2cc1N1CCN(C)CC1
29 | 0.24 | CN1CCN(c2cc3c(Nc4ccc(F)cc4F)c(C(N)=O)cnc3cc2F)CC1
30 | 0.25 | COc1cc2ncc(C(N)=O)c(Nc3ccc(F)cc3F)c2cc1N1CCN(C)CC1
31 | 0.044 | CN1CCN(c2cc3c(Nc4cccc(Cl)c4Cl)c(C(N)=O)cnc3cc2F)CC1

Tested on: not listed separately
Experiment: Bioavailability in rat at 3 mg/kg, iv and 10 mg/kg, po
Assay type: ADME, organism-based
Conditions: in vivo

Row | bioavailability [%] | SMILES
32 | 100 | CCOc1cc2ncc(C(N)=O)c(Nc3ccc(F)cc3F)c2cc1N1CCN(C)CC1
33 | 100 | CCOc1cc2ncc(C(N)=O)c(Nc3cccc(Cl)c3Cl)c2cc1N1CCN(C)CC1
34 | 13 | CN1CCN(c2cc3c(Nc4ccc(F)cc4F)c(C(N)=O)cnc3cc2F)CC1
35 | 90 | COc1cc2ncc(C(N)=O)c(Nc3ccc(F)cc3F)c2cc1N1CCN(C)CC1

Tested on: not listed separately
Experiment: Clearance in rat at 3 mg/kg, iv and 10 mg/kg, po
Assay type: ADME, organism-based
Conditions: in vivo

Row | clearance [mL/min/kg] | SMILES
36 | 12 | CCOc1cc2ncc(C(N)=O)c(Nc3ccc(F)cc3F)c2cc1N1CCN(C)CC1
37 | 190 | CN1CCN(c2ccc3ncc(C(N)=O)c(Nc4cccc(Cl)c4Cl)c3c2)CC1
38 | 57 | CCOc1cc2ncc(C(N)=O)c(Nc3cccc(Cl)c3Cl)c2cc1N1CCN(C)CC1
39 | 20 | CN1CCN(c2cc3c(Nc4ccc(F)cc4F)c(C(N)=O)cnc3cc2F)CC1
40 | 15 | COc1cc2ncc(C(N)=O)c(Nc3ccc(F)cc3F)c2cc1N1CCN(C)CC1
41 | 23 | CN1CCN(c2cc3c(Nc4cccc(Cl)c4Cl)c(C(N)=O)cnc3cc2F)CC1

Tested on: not listed separately
Experiment: Volume of distribution at steady state in rat at 3 mg/kg, iv and 10 mg/kg, po
Assay type: ADME, organism-based
Conditions: in vivo, read-out: Vdss

Row | Vd [L/kg] | SMILES
42 | 2.5 | CCOc1cc2ncc(C(N)=O)c(Nc3ccc(F)cc3F)c2cc1N1CCN(C)CC1
43 | 5.9 | CN1CCN(c2ccc3ncc(C(N)=O)c(Nc4cccc(Cl)c4Cl)c3c2)CC1
44 | 3.5 | CCOc1cc2ncc(C(N)=O)c(Nc3cccc(Cl)c3Cl)c2cc1N1CCN(C)CC1
45 | 1.4 | CN1CCN(c2cc3c(Nc4ccc(F)cc4F)c(C(N)=O)cnc3cc2F)CC1
46 | 2.3 | COc1cc2ncc(C(N)=O)c(Nc3ccc(F)cc3F)c2cc1N1CCN(C)CC1
47 | 1.1 | CN1CCN(c2cc3c(Nc4cccc(Cl)c4Cl)c(C(N)=O)cnc3cc2F)CC1

Tested on: not listed separately
Experiment: Half life in rat at 3 mg/kg, iv and 10 mg/kg, po
Assay type: ADME, organism-based
Conditions: in vivo

Row | half-life [h] | SMILES
48 | 2.1 | CCOc1cc2ncc(C(N)=O)c(Nc3ccc(F)cc3F)c2cc1N1CCN(C)CC1
49 | 0.7 | CN1CCN(c2ccc3ncc(C(N)=O)c(Nc4cccc(Cl)c4Cl)c3c2)CC1
50 | 0.9 | CCOc1cc2ncc(C(N)=O)c(Nc3cccc(Cl)c3Cl)c2cc1N1CCN(C)CC1
51 | 1.1 | CN1CCN(c2cc3c(Nc4ccc(F)cc4F)c(C(N)=O)cnc3cc2F)CC1
52 | 1.8 | COc1cc2ncc(C(N)=O)c(Nc3ccc(F)cc3F)c2cc1N1CCN(C)CC1
53 | 0.8 | CN1CCN(c2cc3c(Nc4cccc(Cl)c4Cl)c(C(N)=O)cnc3cc2F)CC1

Tested on: Mus musculus
Experiment: Inhibition of phosphorylated CSF1R level in 3T3/CSF1R mutant cells xenografted nude mouse at 25 mg/kg, po after 2 hrs by ELISA
Assay type: functional
Conditions: not given

Row | SMILES | inhibition in vivo at 25 mg/kg [%]
54 | CCOc1cc2ncc(C(N)=O)c(Nc3ccc(F)cc3F)c2cc1N1CCN(C)CC1 | 90
55 | CCOc1cc2ncc(C(N)=O)c(Nc3cccc(Cl)c3Cl)c2cc1N1CCN(C)CC1 | 75

Tested on: Mus musculus
Experiment: Inhibition of phosphorylated CSF1R level in 3T3/CSF1R mutant cells xenografted nude mouse at 25 mg/kg, po after 6 hrs by ELISA
Assay type: functional
Conditions: not given

Row | SMILES | inhibition in vivo at 25 mg/kg [%]
56 | CCOc1cc2ncc(C(N)=O)c(Nc3ccc(F)cc3F)c2cc1N1CCN(C)CC1 | 65
57 | CCOc1cc2ncc(C(N)=O)c(Nc3cccc(Cl)c3Cl)c2cc1N1CCN(C)CC1 | 45

Target: T1, Macrophage colony-stimulating factor 1 receptor
Experiment: Inhibition of CSF1R at 1 uM
Conditions: not given

Row | inhibition [%] | SMILES
58 | 96 | CCOc1cc2ncc(C(N)=O)c(Nc3ccc(F)cc3F)c2cc1N1CCN(C)CC1

Target: T2, NUAK family SNF1-like kinase 1 (Homo sapiens) (UniProt O60285)
T2 sequence (whole entry): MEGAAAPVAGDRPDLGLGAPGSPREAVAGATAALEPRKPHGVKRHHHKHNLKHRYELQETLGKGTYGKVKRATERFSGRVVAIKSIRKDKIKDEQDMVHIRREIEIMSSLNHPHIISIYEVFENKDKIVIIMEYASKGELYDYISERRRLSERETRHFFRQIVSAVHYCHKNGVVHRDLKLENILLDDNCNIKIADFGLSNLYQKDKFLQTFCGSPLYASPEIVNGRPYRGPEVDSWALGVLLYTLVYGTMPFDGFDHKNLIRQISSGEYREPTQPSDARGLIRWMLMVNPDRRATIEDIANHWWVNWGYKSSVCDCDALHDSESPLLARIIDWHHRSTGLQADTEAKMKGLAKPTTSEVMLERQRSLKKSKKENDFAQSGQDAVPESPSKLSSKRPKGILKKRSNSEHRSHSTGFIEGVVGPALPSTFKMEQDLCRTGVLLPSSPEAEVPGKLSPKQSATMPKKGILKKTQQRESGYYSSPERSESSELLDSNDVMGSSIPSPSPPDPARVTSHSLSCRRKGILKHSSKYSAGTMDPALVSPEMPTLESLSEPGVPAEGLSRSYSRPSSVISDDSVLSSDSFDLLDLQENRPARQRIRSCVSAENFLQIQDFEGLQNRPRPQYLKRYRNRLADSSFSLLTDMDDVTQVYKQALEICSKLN
Experiment: Inhibition of ARK5 at 1 uM
Conditions: not given

Row | inhibition [%] | SMILES
59 | 51 | CCOc1cc2ncc(C(N)=O)c(Nc3ccc(F)cc3F)c2cc1N1CCN(C)CC1

Target: ALK tyrosine kinase receptor (Homo sapiens) (UniProt Q9UM73)
Sequence (Q9UM73 19-1620 limits assumed): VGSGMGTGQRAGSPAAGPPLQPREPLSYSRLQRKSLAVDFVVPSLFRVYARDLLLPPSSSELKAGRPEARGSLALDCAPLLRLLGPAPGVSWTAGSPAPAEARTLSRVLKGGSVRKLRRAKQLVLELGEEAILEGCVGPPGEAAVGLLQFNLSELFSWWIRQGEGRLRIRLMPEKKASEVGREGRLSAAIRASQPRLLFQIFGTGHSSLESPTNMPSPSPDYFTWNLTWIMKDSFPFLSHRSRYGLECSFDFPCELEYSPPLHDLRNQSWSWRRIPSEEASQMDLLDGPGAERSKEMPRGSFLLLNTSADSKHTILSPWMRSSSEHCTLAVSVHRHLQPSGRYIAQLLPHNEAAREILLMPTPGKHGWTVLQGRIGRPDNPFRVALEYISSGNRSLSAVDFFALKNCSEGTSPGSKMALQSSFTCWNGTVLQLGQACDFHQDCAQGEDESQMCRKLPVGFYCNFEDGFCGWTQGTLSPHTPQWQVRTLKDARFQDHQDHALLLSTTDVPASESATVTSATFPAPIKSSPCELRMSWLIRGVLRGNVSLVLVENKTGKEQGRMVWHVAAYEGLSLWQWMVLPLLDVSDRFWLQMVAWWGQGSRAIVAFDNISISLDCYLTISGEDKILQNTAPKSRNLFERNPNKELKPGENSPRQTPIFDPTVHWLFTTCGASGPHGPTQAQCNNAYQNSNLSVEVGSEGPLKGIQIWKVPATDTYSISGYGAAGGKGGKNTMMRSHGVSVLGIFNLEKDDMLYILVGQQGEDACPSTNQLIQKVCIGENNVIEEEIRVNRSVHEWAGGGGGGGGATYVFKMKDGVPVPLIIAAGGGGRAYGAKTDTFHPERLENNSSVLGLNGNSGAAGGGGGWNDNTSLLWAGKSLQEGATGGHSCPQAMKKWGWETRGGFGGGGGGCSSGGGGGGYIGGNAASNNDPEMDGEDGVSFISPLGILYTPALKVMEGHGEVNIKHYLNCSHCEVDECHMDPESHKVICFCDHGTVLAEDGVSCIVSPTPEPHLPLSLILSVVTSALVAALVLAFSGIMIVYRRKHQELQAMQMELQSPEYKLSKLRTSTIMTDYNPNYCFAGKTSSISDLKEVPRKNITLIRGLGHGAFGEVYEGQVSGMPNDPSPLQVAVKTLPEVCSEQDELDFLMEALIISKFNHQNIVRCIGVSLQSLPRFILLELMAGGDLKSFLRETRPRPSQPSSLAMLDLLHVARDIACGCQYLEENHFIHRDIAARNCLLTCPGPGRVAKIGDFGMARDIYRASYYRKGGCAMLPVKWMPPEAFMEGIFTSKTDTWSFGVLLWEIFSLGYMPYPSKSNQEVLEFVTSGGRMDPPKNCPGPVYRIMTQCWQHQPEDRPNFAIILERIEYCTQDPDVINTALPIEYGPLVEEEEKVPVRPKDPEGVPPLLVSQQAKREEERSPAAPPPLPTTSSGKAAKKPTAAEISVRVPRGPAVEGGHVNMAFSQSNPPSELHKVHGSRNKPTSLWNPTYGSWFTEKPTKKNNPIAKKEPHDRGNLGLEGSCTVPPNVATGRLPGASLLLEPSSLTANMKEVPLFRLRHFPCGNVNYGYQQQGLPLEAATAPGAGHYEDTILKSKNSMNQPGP
Experiment: Inhibition of ALK at 1 uM
Conditions: not given

Row | inhibition [%] | SMILES
60 | 23 | CCOc1cc2ncc(C(N)=O)c(Nc3ccc(F)cc3F)c2cc1N1CCN(C)CC1

Target: Ribosomal protein S6 kinase alpha-1 (Homo sapiens) (UniProt Q15418)
Sequence (Q15418 whole entry): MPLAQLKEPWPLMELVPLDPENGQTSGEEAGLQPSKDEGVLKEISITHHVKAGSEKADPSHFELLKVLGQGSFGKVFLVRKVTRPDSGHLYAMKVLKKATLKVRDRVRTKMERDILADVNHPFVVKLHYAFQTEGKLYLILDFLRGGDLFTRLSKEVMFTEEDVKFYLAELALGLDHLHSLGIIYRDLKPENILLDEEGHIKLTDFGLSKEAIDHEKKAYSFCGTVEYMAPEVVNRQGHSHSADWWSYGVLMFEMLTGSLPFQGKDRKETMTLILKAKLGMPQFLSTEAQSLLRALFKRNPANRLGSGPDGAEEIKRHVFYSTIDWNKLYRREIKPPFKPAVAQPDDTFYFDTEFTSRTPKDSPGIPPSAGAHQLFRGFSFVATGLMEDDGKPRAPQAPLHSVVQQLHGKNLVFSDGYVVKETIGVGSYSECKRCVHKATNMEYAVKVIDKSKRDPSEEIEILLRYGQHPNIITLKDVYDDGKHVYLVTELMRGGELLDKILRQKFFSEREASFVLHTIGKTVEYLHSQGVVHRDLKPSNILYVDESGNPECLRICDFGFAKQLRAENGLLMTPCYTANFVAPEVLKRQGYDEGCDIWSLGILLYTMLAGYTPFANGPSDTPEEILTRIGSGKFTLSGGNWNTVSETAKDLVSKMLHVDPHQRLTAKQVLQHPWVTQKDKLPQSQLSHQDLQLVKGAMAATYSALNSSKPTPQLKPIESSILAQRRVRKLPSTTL
Experiment: Inhibition of RSK1 at 1 uM
Conditions: not given

Row | inhibition [%] | SMILES
61 | 21 | CCOc1cc2ncc(C(N)=O)c(Nc3ccc(F)cc3F)c2cc1N1CCN(C)CC1
